Experimental data taken from PubChem BioAssay AID2060331 (Molecular Pharmacology Branch, DTP, NCI, 2025).
Where “and” joins values, the source holds several entries; their conditions need not be identical. Equal values may be shown once.

Test system: Hs578T multi-cell spheroids, viability
Experiment: Anticancer human tumor Hs578T cell line growth inhibition [IpAb];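 further: drug exposure lasted 7 days before readout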
Conditions: for viability, T/C: stronger effect = lower value
Text: Combinatorial screen of targeted agents with ipatasertib and abemaciclib in multi-cell type tumor spheroids
A high-throughput screen of multi-cell type tumor spheroids was designed to identify active combinations of targeted small molecules and ipatasertib or abemaciclib. Complex spheroids include a stromal component modeled by human endothelial cells (HUVEC) and fibroblasts modeled by human mesenchymal stem cells (MSCs). The concentration ranges selected for each drug and investigational agent were based upon clinically achievable concentrations if the clinical Cmax of the agent was known.
Compounds. The drugs and investigational agents: ipatasertib (NSC767898), abemaciclib(NSC768073), selumetinib (NSC741078), trametinib (758246), adavosertib (NSC754352), everolimus (NSC733504), sapanisertib (NSC764658), vemurafenib (NSC761431), venetoclax (NSC766270), copanlisib (NSC809693), apelisib (NSC765974), palbociblib (NSC758247), vemurafenib (NSC761431), dabrafenib (NSC764134), ravoxertinib (NSC781343), BMS-387032 (NSC767048), sotorasib (NSC818433), talazoparib (NSC767125) and afursertib (NSC778305), were obtained from the National Cancer Institute (NCI) Developmental Therapeutics Program Chemical Repository. The FDA-approved anticancer drug set is available from the NCI Developmental Therapeutics Program. […] The stock solutions were prepared in dimethyl sulfoxide (DMSO, Sigma-Aldrich, St. Louis, MO, cat. D2650) at 800-fold the tested concentration and stored at -70 degrees C prior to their use. All drugs and investigational agents were tested over a range starting from a high concentration at or near the clinical Cmax and decreasing in half-log increments. If the clinical Cmax for an agent had not been determined, the highest concentration tested was 10 microM.
NCI60 Cell Culture. NCI60 cell lines were obtained from the NCI Developmental Therapeutics Program Tumor Repository. For each lot of cells, the Repository performed Applied Biosystems AmpFLSTR Identifiler testing with PCR amplification to confirm consistency with the published Identifier STR profile for each cell line. Cells were kept in continuous culture for no more than 20 passages. The optimal seeding densities for each of the cell lines at each time point assessed were determined prior to performing the concentration response studies. Briefly, the NCI60 human tumor lines were grown as monolayers in RPMI 1640 medium supplemented with 10% FBS and 2 mmol/L L-glutamine.
An additional 9 lines were from the NCI60 cell line panel including MDA-MB-231 breast carcinoma, MDA-MB-468 breast carcinoma, MCF7 breast carcinoma, Hs578T breast carcinoma, MALME-3M melanoma, SK-MEL-2 melanoma, SK-OV-3 ovarian carcinoma, DU-145 prostate carcinoma, PC-3 prostate carcinoma, all cell lines along with major genetic alterations are listed on Table 2. Pooled donor human umbilical vein endothelial cells (HUVEC, Lonza, cat. CC-2519) and human mesenchymal stem cells (hMSC, Lonza, cat. PT-2501) were purchased from Lonza (Walkersville, MD).
PDMR cell lines were grown in complete medium (DC medium): Dulbecco's modified Eagle's medium (DMEM)/F12 supplemented with 5% fetal bovine serum (FBS), 2 mM L-glutamine, 100 U/mL penicillin and 100 µg/ml streptomycin, 0.4 µg/ml hydrocortisone, 10 ng/ml epidermal growth factor (EGF) recombinant human protein, 24 µg/mL adenine, and 0.1 mg/mL primocin. During culture from frozen stock vials, PDMR cells were cultured in the same medium containing 10 µM Y-27632 (see Table 3). The PDCs were cultured in complete DMEM/F12 media without 10 microM Y-27632 dihydrochloride for at least two passages prior to the screen. The pooled donor HUVEC and hMSC were cultured in endothelial cell growth medium 2 (PromoCell, Heidelberg, Germany, cat. C-22011) and mesenchymal stem cell growth medium 2 (PromoCell, cat. C-28009), respectively. For all experiments, HUVEC and hMSC were used at passages </=5.
[…]

SMILES | IC50 (curve of compound) | viability, T/C (compound 0.0316 µM) | viability, T/C (compound 0.1 µM) | viability, T/C (compound 0.316 µM) | viability, T/C (compound 1 µM) | viability, T/C (compound 3.16 µM) | viability, T/C (compound 10 µM) | viability, T/C (compound 0.01 µM) | also measured
C=CC(=O)N1CCN(c2nc(=O)n(-c3c(C)ccnc3C(C)C)c3nc(-c4c(O)cccc4F)c(F)cc23)C(C)C1 (configuration not stated) | > 10000 nM | 103% and 104% | 103% and 109% | 113% and 116% | 108% and 111% | 106% and 95.6% | 73.4% and 68.4% |  | 
CC(=O)c1c(C)c2cnc(Nc3ccc(N4CCNCC4)cn3)nc2n(C2CCCC2)c1=O | > 300 nM |  |  |  |  |  |  |  | viability, T/C (compound 0.000949 µM): 105% and 108%; viability, T/C (compound 0.003 µM): 90.8% and 99.7%; viability, T/C (compound 0.00949 µM): 92.8% and 87.4%; viability, T/C (compound 0.03 µM): 82.7% and 87.7%; viability, T/C (compound 0.0949 µM): 73.4% and 73.1%; viability, T/C (compound 0.3 µM): 63.6% and 72.5%
CC(C)(C)c1cnc(CSc2cnc(NC(=O)C3CCNCC3)s2)o1 | 184 nM and 178 nM |  |  |  |  |  |  |  | viability, T/C (compound 0.00949 µM): 102% and 104%; viability, T/C (compound 0.03 µM): 113% and 114%; viability, T/C (compound 0.0949 µM): 122% and 107%; viability, T/C (compound 0.3 µM): 4.21% and 2.95%; viability, T/C (compound 0.949 µM): 2.73% and 3.15%; viability, T/C (compound 3 µM): 2.69% and 3.46%
CC(C)NCC(C(=O)N1CCN(c2ncnc3c2C(C)CC3O)CC1)c1ccc(Cl)cc1 (configuration not stated) |  |  | 96.2% [middle of 13 runs] | 83.9% [middle of 13 runs] | 66.8% [middle of 13 runs] | 53.8% [middle of 12 runs] | 45% [middle of 13 runs] |  | 
CCN1CCN(Cc2ccc(Nc3ncc(F)c(-c4cc(F)c5nc(C)n(C(C)C)c5c4)n3)nc2)CC1 |  | 90.4% [middle of 13 runs] | 83.7% [middle of 13 runs] | 83.3% [middle of 13 runs] | 94.2% [middle of 13 runs] |  |  | 97.2% [middle of 13 runs] | IC50 (compound alone, run of 06/01/2021): > 1000 nM
COc1c(OCCCN2CCOCC2)ccc2c3n(c(=NC(=O)c4cnc(N)nc4)nc12)CCN3 | 26 nM and 31.8 nM | 47.2% and 49% | 29.4% | 14.3% and 13.7% | 8.6% and 5.54% |  |  | 66.7% and 76.7% | viability, T/C (compound 0.00316 µM): 88.8% and 99.7%

Further lines, with some results ahead:

IC50 (curve of compound) | SMILES | viability, T/C (compound 0.0316 µM) | viability, T/C (compound 0.1 µM) | viability, T/C (compound 0.316 µM) | viability, T/C (compound 1 µM) | viability, T/C (compound 3.16 µM) | viability, T/C (compound 10 µM) | viability, T/C (compound 0.01 µM) | also measured
275 nM and 295 nM | C=CCn1c(=O)c2cnc(Nc3ccc(N4CCN(C)CC4)cc3)nc2n1-c1cccc(C(C)(C)O)n1 | 98.6% and 100% | 77.7% and 83.3% | 46.2% and 47.5% | 26% and 25.8% | 15.1% and 19.1% | 17.7% and 17.6% |  | 
7.72 nM and 9.02 nM | CC(C)n1nc(-c2ccc3oc(N)nc3c2)c2c(N)ncnc21 | 20.7% and 20.5% | 15.8% and 14.6% |  |  |  |  | 43.1% and 49.1% | viability, T/C (compound 0.000316 µM): 95.3% and 94.5%; viability, T/C (compound 0.001 µM): 92.4% and 104%; viability, T/C (compound 0.00316 µM): 74.8% and 76.7%
5910 nM and 6160 nM | CC1(C)CCC(CN2CCN(c3ccc(C(=O)NS(=O)(=O)c4ccc(NCC5CCOCC5)c([N+](=O)[O-])c4)c(Oc4cnc5[nH]ccc5c4)c3)CC2)=C(c2ccc(Cl)cc2)C1 | 105% and 104% | 103% and 110% | 99.5% and 102% | 104% | 89.2% and 92.6% | 17% and 19% |  | 
5310 nM and 5510 nM | CCCS(=O)(=O)Nc1ccc(F)c(C(=O)c2c[nH]c3ncc(-c4ccc(Cl)cc4)cc23)c1F | 95.3% and 98.5% | 101% and 109% | 109% and 105% | 96.1% and 102% | 81.1% and 85.8% | 12.5% and 11.4% |  | 
